Source: patent US8138219B2, “Tryptamine sulfonamides as 5-HT6 antagonists” (Merck Sharp & Dohme Corp., priority 2007, dated 2012)
Like-named read-outs stand apart in the source and are kept apart here.

Legend:
Mouse 5-HT6 = molecular target: T1, Mouse 5-HT6 (Mus musculus, UniProt Q9R1C8); experiment: 5-HT6 receptor binding assay ([3H]5-HT displacement, SPA), mouse receptor
T1 construct: expressed in transfected cells
Experimental: (§1) 5-HT6 Receptor Binding Assay
(§2) Affinity (IC50) of a compound for cloned human, rat, or mouse 5-HT6 receptor was measured by its ability to displace [^3H]5-HT using cell membranes prepared from cultured cells and scintillation proximity assay (SPA) beads that bind to cell membranes (Catalog No. RPNQ0001; GE Healthcare Life Sciences, Piscataway, N.J.). Assays were carried out in 200 μl binding buffer (50 mM Tris-HCl, pH 7.4, 5 mM MgCl2, 0.5 mM EDTA, 10 μM pargyline and 0.1% ascorbic acid) in 96-well plates. Cell membranes were re-suspended in binding buffer to final concentration of up to 0.2 mg protein/ml and mixed with reconstituted SPA beads to a final concentration of 0.25 mg/ml. To each well, […] of above mixture, 50 of cold compound (to 10^−10 to 10^−5 M final concentration) and 50 μl of [^3H]5-HT radioligand (specific activity, 100 Ci/mmol, GE Healthcare Life Sciences; final concentration, 5 nM) were added. Following 1 h incubation at room temperature, the radioactivity bound to the cell membranes was measured on a scintillation counter.

Human 5-HT6 = molecular target: T2, Human 5-HT6 (Homo sapiens, UniProt P50406); experiment: 5-HT6 receptor binding assay ([3H]5-HT displacement, SPA), human receptor
T2 construct: expressed in transfected cells
Experimental: as §1, §2

[1] = tested on: 5-HT6 receptor expressed in CHO cells; experiment: 5-HT6 receptor functional activity assay (cellular cAMP levels, CHO cells); assay type: cell-based, human, rat, or mouse; settings: concentration up to 10 micromolar; cAMP accumulation; species not specified
Experimental: 5-HT6 Receptor Functional Activity Assay.
The functional activation of human, rat, or mouse 5-HT6 receptor expressed in CHO cells was determined by measuring cellular cAMP levels following the exposure of the cells to a compound using the SPA cAMP Screening System (Catalog No. RPA556, GE Healthcare) in 96-well OptiPlates (Catalog No. 6005190, PerkinElmer, Boston, Mass.). Cells expressing recombinant receptors were harvested and then re-suspended at approximately 2.0×10^6 cells/ml in assay medium containing Earle's Balanced Salt Solution (EBSS, pH 7.4) supplemented with 25 mM Hepes, 5 mM MgCl2 and 0.05% BSA. Cells (50 μl, ˜10^5 cells) were transferred to wells, to give a final volume of 100 μl containing various concentrations of compounds. The plate was incubated at 37° C. for 30 min and the reaction was terminated by boiling for 3 min. The accumulation of cAMP in 15 μl lysate was measured according to manufacture's instructions.

[2] = cloned mouse 5-HT6 receptor, cell membranes, [3H]5-HT 5 nM, read-out: Mouse 5-HT6 binding IC50
[3] = cloned human 5-HT6 receptor, cell membranes, [3H]5-HT 5 nM, read-out: Human 5-HT6 binding IC50

T1 sequence (Q9R1C8 whole entry): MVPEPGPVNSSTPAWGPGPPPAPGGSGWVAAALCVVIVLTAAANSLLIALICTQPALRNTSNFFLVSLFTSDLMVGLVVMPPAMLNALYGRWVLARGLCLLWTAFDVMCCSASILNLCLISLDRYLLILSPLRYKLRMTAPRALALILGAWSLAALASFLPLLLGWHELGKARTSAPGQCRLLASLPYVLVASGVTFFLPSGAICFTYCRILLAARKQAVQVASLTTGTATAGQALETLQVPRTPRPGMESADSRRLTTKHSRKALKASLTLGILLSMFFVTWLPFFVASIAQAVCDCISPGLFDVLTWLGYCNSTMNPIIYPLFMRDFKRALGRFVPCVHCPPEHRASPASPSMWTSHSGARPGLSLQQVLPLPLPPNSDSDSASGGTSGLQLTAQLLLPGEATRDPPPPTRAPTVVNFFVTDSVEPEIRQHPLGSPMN
T2 sequence (P50406 whole entry): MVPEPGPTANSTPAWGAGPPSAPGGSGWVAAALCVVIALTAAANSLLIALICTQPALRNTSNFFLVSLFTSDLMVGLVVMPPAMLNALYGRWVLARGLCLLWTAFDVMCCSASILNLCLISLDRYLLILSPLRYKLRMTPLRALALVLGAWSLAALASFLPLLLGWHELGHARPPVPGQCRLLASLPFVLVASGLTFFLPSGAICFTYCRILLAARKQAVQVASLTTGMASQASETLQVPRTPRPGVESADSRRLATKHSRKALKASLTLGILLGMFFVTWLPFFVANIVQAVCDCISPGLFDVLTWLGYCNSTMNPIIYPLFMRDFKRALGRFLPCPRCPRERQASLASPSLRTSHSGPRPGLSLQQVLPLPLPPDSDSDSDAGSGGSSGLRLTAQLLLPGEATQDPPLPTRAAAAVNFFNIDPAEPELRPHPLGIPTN

IC50 (Mouse 5-HT6; [2]) [nM] | IC50 (Human 5-HT6; [3]) [nM] | Compound | functional activation of 5-HT6 receptor (detectable activity) [1] | IC50 (Mouse 5-HT6) [nM] | IC50 (Human 5-HT6) [nM]
2 | 0.2 | Cl.O=S(=O)(c1ccccc1)n1cc(CCNCc2cccc(OCC(F)(F)C(F)F)c2)c2ccc(F)cc21 [Example 1] | did not show detectable activity | – | –
– | – | O=S(=O)(c1ccc(OC(F)(F)F)cc1)n1cc(CCNCc2cccc(OCC(F)(F)C(F)F)c2)c2ccc(F)cc21 [Example 2] | – | 211 | 46.4
170 | 0.593 | COc1cccc(S(=O)(=O)n2cc(CCNCc3cccc(OCC(F)(F)C(F)F)c3)c3ccc(F)cc32)c1 [Example 3] | – | – | –
60.2 | 0.805 | O=S(=O)(c1cccc(Cl)c1)n1cc(CCNCc2cccc(OCC(F)(F)C(F)F)c2)c2ccc(F)cc21 [Example 4] | – | – | –
148 | 2.88 | O=S(=O)(c1cc(Cl)cc(Cl)c1)n1cc(CCNCc2cccc(OCC(F)(F)C(F)F)c2)c2ccc(F)cc21 [Example 5] | – | – | –
– | – | O=S(=O)(c1ccc(F)cc1)n1cc(CCNCc2cccc(OCC(F)(F)C(F)F)c2)c2ccc(F)cc21 [Example 6] | – | 21.6 | 2.88
7.27 | 3.4 | O=S(=O)(c1ccc(Cl)cc1)n1cc(CCNCc2cccc(OCC(F)(F)C(F)F)c2)c2ccc(F)cc21 [Example 7] | – | – | –
15.4 | 2.05 | O=S(=O)(c1ccc(Br)cc1)n1cc(CCNCc2cccc(OCC(F)(F)C(F)F)c2)c2ccc(F)cc21 [Example 8] | – | – | –
127 | 8.85 | O=S(=O)(c1ccc(F)c(Cl)c1)n1cc(CCNCc2cccc(OCC(F)(F)C(F)F)c2)c2ccc(F)cc21 [Example 9] | – | – | –
60 | 0.626 | O=S(=O)(c1cccc(C(F)(F)F)c1)n1cc(CCNCc2cccc(OCC(F)(F)C(F)F)c2)c2ccc(F)cc21 [Example 10] | – | – | –
17.6 | 0.371 | O=S(=O)(c1cccc(F)c1)n1cc(CCNCc2cccc(OCC(F)(F)C(F)F)c2)c2ccc(F)cc21 [Example 11] | – | – | –
– | – | CS(=O)(=O)n1cc(CCNCc2cccc(OCC(F)(F)C(F)F)c2)c2ccc(F)cc21 [Example 12] | – | 9.51 | 1.61
– | – | CCS(=O)(=O)n1cc(CCNCc2cccc(OCC(F)(F)C(F)F)c2)c2ccc(F)cc21 [Example 13] | – | 11.7 | 2.62
57.1 | 20 | CC(C)S(=O)(=O)n1cc(CCNCc2cccc(OCC(F)(F)C(F)F)c2)c2ccc(F)cc21 [Example 14] | – | – | –
187 | 10.2 | COc1ccc(S(=O)(=O)n2cc(CCNCc3cccc(OCC(F)(F)C(F)F)c3)c3ccc(F)cc32)cc1 [Example 15] | – | – | –
